Assays:
[1] = test system: LPS stimulated DCs characterized by CD11c+ MHC-II+; experiment: Co-stimulatory markers of LPS stimulated murine bone-marrow DCs; assay type: cell-based
Source text: Rb9 immunomodulation of murine bone-marrow dendritic cells (DCs) was also examined focusing on co-stimulatory markers.

[2] = test system: bone marrow derived dendritic cells; experiment: CD74 receptor expression in myeloid dendritic cells; assay type: cell-based, mouse; conditions: murine dendritic cells
Protocol: After incubation the cells were stimulated with or without LPS (Sigma-Aldrich, Missouri, USA), at 200 ng/ml or tumor lysate (B16F10-Next cells) in the proportion of 30 DCs to 1 tumor cell, for 24 h. After incubation, the cells were harvested and stained with anti-CD74 (BV786) from BD Bioscience. Stained cells were acquired using LSRFortessa™ (Becton Dickinson, San Jose, Calif., USA) and data analysis was performed using the FlowJo V10 (TreeStar Inc., Ashland, Oreg., USA). The results are represented as percentage of CD74^+ cells in CD11b^+CD11c^+ or CD11c^+MHCII^+ population.
Protein lysates were separated by electrophoresis, and immunoblotting analyses were performed for: total AKT, total p44/42 MAPK (ERK1/2), total IKKα, total IkBα, total NF-kB p65, phospho-AKT (Ser473), phospho-ERK1/2 (Thr202/Tyr204), phospho-IKKα/β (Ser176/180), phospho-IkBα (Ser32) and phospho-NFkB p65 (Ser536). GAPDH was assayed for loading control. HRP-conjugated secondary antibodies were used, followed by incubation with the ECL substrate (Millipore, Billerica, Mass.). All primary and secondary antibodies were purchased from Cell Signaling Technologies (Beverly, Mass., USA). Anti-CD74 receptor was also assayed (Abcam, Cambridge, UK). Phosphorylation ratios were quantified using ImageJ software. Results are represented in arbitrary units normalized to untreated control lanes.

[3] = test system: colorectal CT26 carcinoma cells; experiment: Subcutaneous syngeneic colorectal carcinoma model; assay type: in vivo, Balb/c mice; conditions: CT26 of moderate virulence (ATCC, CRL-2638); 300 μg i.p., 5 consecutive days
[4] = test system: human mo-DC from healthy donors; experiment: mo-DC generated under tolerogenic, TNF-alpha or LPS conditions, flow cytometry; assay type: cell-based
Protocol: To further evaluate and confirm this property, mo-DC were generated from healthy donors cells in three different conditions, all in the presence of GM-CSF (50 ng/mL) and IL-4 (50 ng/mL). To one group of cells at day 5, TGF-beta ([…]) and IL-10 (1 ug/mL) were added; to a second group, at day 5, TNF-alpha was added and to a third group, LPS (100 ng/mL) was added at day 6. The first condition is known to induce phenotypic changes in mo-DC consistent with a tolerogenic activity of the cells, while both other conditions generate mature mo-DC, with LPS representing a stronger maturation stimulus than TNF-alpha. […] At day 7 all cells were harvested and analyzed by flow cytometry.

[5] = test system: B16F10-Nex2 melanoma cells; experiment: Syngeneic metastatic melanoma model, lung nodule count; assay type: in vivo, C57BL/6 mice
Protocol: Male C57BL/6 mice, 6 to 8-week-old were obtained from the Center for Development of Experimental Models (CEDEME), Federal University of Sao Paulo (UNIFESP). For the in vivo metastatic model, C57BL/6 mice received one intravenous (i.v.) injection of 2×10^5 viable B16-F10-Next melanoma cells in 100 μL. […] The control group received 100 μL PBS. Twenty-two days later, mice (minimum n=3 per group) had their lungs harvested, and the number of macroscopic melanotic nodules were counted. The Ethical Committee of Federal University of São Paulo, Project no. 1234, 2011, approved all experiments with animals, according to International guidelines. For the subcutaneous model, mice were injected with 5×10^5 tumor cells suspended in 100 μL of PBS in the right flank via the subcutaneous route. The peptide (300 μg) was solubilized in 10 μL of distilled H2O and 90 μL of PBS and injected per mouse via the intraperitoneal route. The administration of the peptide was performed in 5 alternate days initiating one day after tumor challenge. Tumor longitudinal diameter (D) and transverse diameter (d) were measured every 2 days until the tumor volume reached 3,000 mm3. Animals were sacrificed when the allowed volume was reached. Volume was calculated using the formula v=Dd^2×0.52. Tumor Cell Growth In Vitro and In Vivo Details of the in vitro tumor cell growth, cytotoxicity tests, determination of viable cells and in vivo protection experiments with B16F10 cells in a mouse metastatic model are described in Polonelli et al. (PLoS One. 3(6):e2371, 2008) and Dobroff et al. (Transl. Onc., 3: 204-217, 2010).
6 to 8 Week-old C57BL/6 mice (n=5, per group) were intravenously challenged with 1×10^5 of syngeneic B16F10-Nex2 viable cells in 0.1 mL of RPMI medium without FBS, and treated on the next day with intraperitoneal doses of 300 μg (10 mg/kg) each, of Scr1, Scr2, Scr3 or Scr4 peptide or with the control vehicle (PBS) in alternate days, total of 5 doses. After 14 days, mice were euthanized, and lungs were harvested and assessed for metastatic colonization. The number of metastatic lesions was quantified using a stereo microscope (Nikon, Tokyo). The percentage of the tumor area/total area was also quantified by ImageJ software.
B16F10-Nex2 tumor cells (2×10^5) in RPMI (100 μl) were injected in both animal groups in the tail veins on day 0. Animals were sacrificed on day 22, or 10 days after the last administration of the peptide, and their lungs were examined for dark melanotic nodules.
C57Bl6 mice were intravenously challenged with 4×10^5 syngeneic B16F10-Nex2 cells in 0.1 ml of RPMI without FBS.
Mice were injected with 5×10^5 B16F10-Nex2 cells i.v. suspended in 100 μl PBS. […] Imiquimod at 50 μg/100 μl was injected i.p. in 3 alternate days; CpG ODN 1585, i.p., in two alternate days; and Poly (I:C), i.p., in two alternate days. After 15 days of tumor challenge, the animals were sacrificed, the lungs were removed and the pulmonary nodules were counted.

[6] = tolerogenic conditions (TGF-beta+IL-10)

[CARGETARATFAYWGQGC], NH2 (C-C) [Rb9]
CD40 expression [1]: regulated CD40 expression
expression of CD80 and CD86 ([1]; Rb9 mainly at 50 μg/ml): significantly stimulated
expression of CD74 in CD11b+CD11c+ and CD11c+MHC-II+ cells [2]: increased expression
subcutaneous tumor growth [3]: significantly delayed
number of CD11c+HLA-DR+ cells ([4]; LPS-treated cells): decreased the number of cells
percentage of CD11c+HLA-DR+ cells ([4]; TGF-beta+IL-10 group): increased the percentage of cells
percentage of CD11c+HLA-DR+ cells ([4]; TNF group): little effect
co-stimulatory potential (CD80 and CD86 double-positive cells) ([4]; mild stimulus (TNF-alpha)): partially inhibitory
maturation of mo-DC (HLA-DR+CD83+) ([4]; mild stimulus (TNF-alpha)): enhanced their maturation
co-stimulatory potential (CD80 and CD86 double-positive cells) ([4]; strongly stimulated by LPS): clearly inhibitory
maturation of mo-DC (HLA-DR+CD83+) ([4]; strongly stimulated by LPS): inhibitory
co-stimulatory potential (CD80 and CD86 double-positive cells) [4, 6]: increased their co-stimulatory potential
maturation of mo-DC (HLA-DR+CD83+) [4, 6]: increased the maturation
protection in the metastatic model ([5]; 50-100 μg i.p. doses): significant protection
efficiency of administration route for antitumor protection ([5]; i.d. route compared with i.p. and i.v.): mostly efficient
antitumor activity (pulmonary nodules) ([5]; i.p., alone, Rb9 300 μg 5 consecutive days, Imiquimod 50 μg 3 alternate days, CpG and Poly (I:C) two alternate days, 15 days after challenge): Antitumor activities of Rb9 and Imiquimod were the same
antitumor activity of the combination of Rb9 and Imiquimod ([5]; i.p., 15 days after challenge): not additive
number of lung tumor cell nodules (protection) ([5]; immunocompetent C57Bl6 mice, 250 μg i.p. on days 1,3,5,7,9,11, lungs on day 22): clearly protective
best concentrations for protection, dose range per animal ([5]; metastatic model): 200 to 300 µg
